The values below come from patent publication US10149474B2, “Herbicidal compositions comprising isoxaflutole and diflufenican” (BAYER CROPSCIENCE AKTIENGESELLSCHAFT, priority 2015, dated 2018).

Assay in all cases: Greenhouse trial, herbicidal activity against weed plants pre-emergence
Settings in all cases: 3 weeks

Experiment [1] concerns AMAPA USA12001. Format: in vivo, Amaranthus palmeri. The source says: (§1) Test Conditions in the Greenhouse Trial, Herbicidal Activity Against Weed Plants Pre-Emergence
(§2) Seeds of monocotyledonous and dicotyledonous weed plants and crop plants are shown in sandy loam soil in wood fibre pots, and covered with soil. The compounds of the invention, formulated in the form of wettable powders (WP) or emulsifiable concentrates (EC), are then applied to the surface of the covering earth, in the form of an aqueous suspension or emulsion, with a water application rate when converted of 600 to 800 I/ha with addition of 0.2% of wetting agent. Following the treatment, the pots are placed in a greenhouse and maintained under good growth conditions for the test plants. Visual scoring of the damage to the trial plants takes place after a trial time of 3 weeks in comparison to untreated controls (herbicidal activity in percent (%): 100% activity=plants have died; 0% activity=as control plants). The results are set out in the tables which follow.
AMAPA (USA12001) Amaranthus palmeri (against HPPD-resistant species)
(§3) E^C=Expected value according to Colby (E^C=A+B−A×B/100)
(§4) Δ=Difference (%) between measured value and expected value (%) (measured value minus expected value)
(§5) • measured value E is greater than E^C:→synergism (+Δ) • measured value E is equal to E^C:→additive effect • measured value E is smaller than E^C:→antagonism (−Δ)

Experiment [2] has as its system POAAN. Format: in vivo, Poa annua.
Source text: as §1, §2, §3, §4, §5

The test system of experiment [3] is POLCO. Format: in vivo, Polygonum convolvulus.
Source text: as §1, §2
POLCO Polygonum convolvulus
as §3, §4, §5

Experiment [4] deals with PHBPU. Type of experiment: in vivo, Pharbitis purpureum.
Source text: as §1, §2
PHBPU Pharbitis purpureum
as §3, §4, §5

Experiment [5] concerns EPHHL. Type of experiment: in vivo, Euphorbia heterophylla.
Source text: as §1, §2
EPHHL Euphorbia heterophylla
as §3, §4, §5

The subject of experiment [6] is ECHCG. Format: in vivo, Echinochloa crus galli.
Source text: as §1, §2
ECHCG Echinochloa crus galli
as §3, §4, §5

Experiment [7] has as its system AMATA. Format: in vivo, Amaranthus tamariscinus.
Source text: as §1, §2
AMATA Amaranthus tamariscinus
as §3, §4, §5

Turning to `CS(=O)(=O)c1cc(C(F)(F)F)ccc1C(=O)c1cnoc1C1CC1` [IFT, isoxaflutole], the “Activity [%] against AMAPA USA12001” value in experiment [1] (rate 6 g/ha) came to 0%; in experiment [1] (rate 13 g/ha) it was 15%; in experiment [1] (rate 25 g/ha), 55%. In addition, the “Activity [%] against POAAN” value in experiment [2] (rate 6 g/ha) and in experiment [2] (rate 25 g/ha) was 0% throughout. The “Activity [%] against POLCO” value in experiment [3] (rate 3 g/ha) was determined as 0%; in experiment [3] (rate 13 g/ha) it was 35%. Moreover, the “Activity [%] against PHBPU” value in experiment [4] (rate 6 g/ha) came to 20%. For the same molecule, in experiment [5] (rate 6 g/ha), the “Activity [%] against EPHHL” value came to 70%. In addition, in experiment [6] (rate 3 g/ha), the “Activity [%] against ECHCG” value amounted to 73%. In addition, in experiment [7] (rate 3 g/ha), the “Activity [%] against AMATA” value was determined as 10%.

For the molecule `O=C(Nc1ccc(F)cc1F)c1cccnc1Oc1cccc(C(F)(F)F)c1` [DFF, diflufenican], the “Activity [%] against AMAPA USA12001” value in experiment [1] (rate 9.375 g/ha) was 20%; in experiment [1] (rate 18.75 g/ha), 35%; in experiment [1] (rate 37.5 g/ha), 45%; in experiment [1] (rate 75 g/ha) it was 70%. Further, the “Activity [%] against POAAN” value is on record as 3% in experiment [2] (rate 9.375 g/ha) and 88% in experiment [2] (rate 18.75 g/ha). The “Activity [%] against POLCO” value in experiment [3] (rate 37.5 g/ha) is on record as 55%. For the same molecule, the “Activity [%] against PHBPU” value in experiment [4] (rate 9.375 g/ha) came to 0%; in experiment [4] (rate 18.75 g/ha), 3%; in experiment [4] (rate 37.5 g/ha) it was 25%; in experiment [4] (rate 75 g/ha) it was 70%. Further, the “Activity [%] against EPHHL” value in experiment [5] (rate 37.5 g/ha) is listed as 30%. The “Activity [%] against ECHCG” value in experiment [6] (rate 9.375 g/ha) and in experiment [6] (rate 18.75 g/ha) was 5% throughout. In addition, in experiment [7] (rate 9.375 g/ha), the “Activity [%] against AMATA” value was 83%.
